Assay results from PubChem BioAssay AID788 (SRMLSC, 2007).
Activity calls are given as the source filed them. No rule for the calls is given here.

system: S. cerevisiae vps1Δ apl2Δ growth inhibition, dose response; experiment: vps1Δ apl2Δ double mutant yeast growth inhibitors – S. cerevisiae, background strain comparison, post-Golgi transport modulator project, dose response (AID 788); details: not given

Q: `O=C(OCn1ncc(Cl)c(Cl)c1=O)c1cccc(C(F)(F)F)c1` was tested. Which IC50 did it give?
A: 6 µM (inactive)

Q: Which IC50 does the source give for `N=c1c2c(-c3ccccc3)c(-c3ccccc3)n(Cc3ccco3)c2ncn1Cc1ccco1` here?
A: 16 µM

Q: `O=C1c2cccc3c([N+](=O)[O-])ccc(c23)C(=O)N1c1ccc(Cl)cn1` was tested. Which IC50 did it give?
A: 18 µM (inactive)

Q: How did the IC50 turn out when `Cc1ccc(NS(=O)(=O)c2cc(C(=O)N3CCOCC3)ccc2C)cc1` was run?
A: > 10 µM (inactive)

Q: With `CCCCSCCCNC(=O)Nc1cccc(OC)c1` as the molecule, how does the IC50 read?
A: > 10 µM (inactive)

Q: How did the IC50 turn out when `O=[N+]([O-])c1cc(Cl)cc(/C=N\Nc2ccccn2)c1O` was run?
A: 9.68 µM

Q: How did the IC50 turn out when `N#Cc1ccccc1Cn1cc(C(=O)c2cccs2)c2ccccc21` was run?
A: > 10 µM (inactive)

Q: For `O=C(CN1CCN(c2ccccn2)CC1)Nc1ccc(Oc2ccccc2)cc1`, which IC50 is on record?
A: > 10 µM (inactive)

Q: How did the IC50 turn out when `CC(c1nnc(SCn2nnc3ccccc3c2=O)n1-c1ccc(Cl)cc1)N(C)C` (stereo unspecified) was run?
A: 2.16 µM

Q: `Cc1[nH]nc(N=CC2=C(O)CC(C)(C)CC2=O)c1-c1ccc(Cl)cc1` was tested. Which IC50 did it give?
A: > 10 µM (inactive)

Q: How did the IC50 turn out when `CC1CCC(C(C)C)C(OCC(O)CN2CCN(Cc3ccccc3)CC2)C1` (stereo unspecified) was run?
A: 4.77 µM

Q: Which IC50 does the source give for `Cc1ccc(C(=O)Nc2ccc(Cc3ccncc3)cc2)cc1[N+](=O)[O-]` here?
A: 23.4 µM

Q: For `CCCCCCOc1ccc(CN2CCN(CCO)CC2)cc1`, which IC50 is on record?
A: 5.19 µM

Q: With `CC12CCC(c3c(C(=O)Nc4nccs4)nn(-c4ccccc4)c31)C2(C)C` (stereo unspecified) as the molecule, how does the IC50 read?
A: > 10 µM (inactive)

Q: Which IC50 does the source give for `CC(Sc1ccsc1[N+](=O)[O-])C(=O)NCCc1ccc(Cl)cc1` (stereo unspecified) here?
A: > 10 µM (inactive)

Q: For `CCOc1nc(SCCOc2ccccc2)nc(N(C)C)n1`, which IC50 is on record?
A: > 10 µM (inactive)

Q: For `N=c1c2c(-c3ccccc3)c(-c3ccccc3)n(Cc3ccco3)c2ncn1Cc1ccccc1`, which IC50 is on record?
A: 18.9 µM

Q: `CCOc1ccc(NC(=O)N(C2CCCCC2)C(C)c2cccnc2)cc1` (stereo unspecified) was tested. Which IC50 did it give?
A: 15 µM

Q: Which IC50 does the source give for `O=C(NCC(c1cccnc1)N1CCN(c2ccc(F)cc2)CC1)OCc1ccccc1` (stereo unspecified) here?
A: 22.9 µM

Q: With `O=C(OCn1ncc(Br)c(Br)c1=O)c1ccccc1Cl` as the molecule, how does the IC50 read?
A: 21 µM

Q: How did the IC50 turn out when `O=C(NCC1COc2ccccc2O1)c1ccc(Cl)cc1` (stereo unspecified) was run?
A: 1.32 µM

Q: For `O=C(C1CCCN(S(=O)(=O)c2ccc(Cl)cc2)C1)N(Cc1cccs1)C1CC1` (stereo unspecified), which IC50 is on record?
A: > 10 µM (inactive)

Q: How did the IC50 turn out when `O=S(=O)(Cc1ccccc1Cl)N1CCN(Cc2ccc3c(c2)OCO3)CC1` was run?
A: 9.91 µM

Q: For `COc1ccc(OCCSc2nnc3sc4ccccc4n23)cc1`, which IC50 is on record?
A: > 10 µM (inactive)

Q: With `O=S1(=O)C=C(Sc2nc3ccccc3s2)c2ccccc21` as the molecule, how does the IC50 read?
A: > 10 µM (inactive)

Q: `O=C1C=C(c2ccccc2)C(=O)N1Nc1ccccc1` was tested. Which IC50 did it give?
A: 20 µM

Q: `CC(C)c1ccc(C(=O)CSc2n[nH]c(-c3ccncc3)n2)cc1` was tested. Which IC50 did it give?
A: 5.64 µM

Q: `CC1CCN(S(=O)(=O)c2ccc(NC(=O)CCN3C(=O)c4ccccc4C3=O)cc2)CC1` was tested. Which IC50 did it give?
A: > 10 µM (inactive)

system: S. cerevisiae wild-type background strain growth inhibition; experiment: as above; details: S. cerevisiae vps1Δ apl2Δ growth inhibition, dose response; measured here: wild-type background strain growth

Q: `O=C(OCn1ncc(Cl)c(Cl)c1=O)c1cccc(C(F)(F)F)c1` was tested. Which IC50 did it give?
A: 3.51 µM

Q: With `N=c1c2c(-c3ccccc3)c(-c3ccccc3)n(Cc3ccco3)c2ncn1Cc1ccco1` as the molecule, how does the IC50 read?
A: 21.5 µM

Q: With `O=C1c2cccc3c([N+](=O)[O-])ccc(c23)C(=O)N1c1ccc(Cl)cn1` as the molecule, how does the IC50 read?
A: 6.08 µM

Q: With `Cc1ccc(NS(=O)(=O)c2cc(C(=O)N3CCOCC3)ccc2C)cc1` as the molecule, how does the IC50 read?
A: > 10 µM

Q: `CCCCSCCCNC(=O)Nc1cccc(OC)c1` was tested. Which IC50 did it give?
A: > 10 µM

Q: `CCOc1cc(/C=C\[N+](=O)[O-])ccc1OCC(=O)Nc1ccccc1C` was tested. Which IC50 did it give?
A: > 10 µM

Q: `CCOC(=O)C1=C(N)N2C(=O)C(C)SC2=C(C(=O)OC)C1c1ccccc1OC` (stereo unspecified) was tested. Which IC50 did it give?
A: 0.163 µM

Q: For `CCCCC(=O)Nc1nc(C)c(-c2csc(Nc3ccc(Cl)cc3)n2)s1`, which IC50 is on record?
A: 6.26 µM

Q: `O=C(NC1CCN(Cc2ccccc2)CC1)C1COc2ccccc2O1` (stereo unspecified) was tested. Which IC50 did it give?
A: > 10 µM

Q: For `C=C(C)COc1ccc(-c2ncncc2Oc2ccc(OC)cc2)c(O)c1`, which IC50 is on record?
A: > 10 µM

Q: For `Cc1cc(NCCCN2CCOCC2)n2ncc(-c3ccc(Cl)cc3)c2n1`, which IC50 is on record?
A: > 10 µM

Q: How did the IC50 turn out when `CC1CC(C)CN(CC(C)(C)NS(=O)(=O)c2ccc(Cl)cc2)C1` (stereo unspecified) was run?
A: > 10 µM

Q: For `c1ccc2c(c1)oc1c(Nc3ccc(CN4CCOCC4)cc3)ncnc12`, which IC50 is on record?
A: > 10 µM

Q: How did the IC50 turn out when `Cc1nnc(-c2cccc(Br)c2)c2cn(-c3ccccc3)nc12` was run?
A: > 10 µM

Q: How did the IC50 turn out when `O=C(Nc1ccccc1)C1=C(O)CC(c2ccco2)CC1=Nc1ccccc1` (stereo unspecified) was run?
A: > 10 µM

Q: How did the IC50 turn out when `O=C(Nc1nnc(-c2ccc(Cl)cc2)o1)c1ccccc1Br` was run?
A: 13.1 µM

Q: With `Cc1cccc(-c2nnc(-c3cccc(NC(=O)Cc4cccs4)c3)o2)c1` as the molecule, how does the IC50 read?
A: 15.2 µM

Q: `Cc1c(Cl)c([N+](=O)[O-])nn1Cc1ccc(C(=O)N/N=C\c2cccc(Br)c2)o1` was tested. Which IC50 did it give?
A: > 10 µM
